Experimental findings from ChEMBL document CHEMBL3352554, “Synthesis and structure-activity relationships of 4-fluorophenyl-imidazole p38α MAPK, CK1δ and JAK2 kinase inhibitors” (Bioorg Med Chem Lett, 2014) are described below.

The target of assay [1] is T1, Mitogen-activated protein kinase 14 (Homo sapiens, UniProt Q16539). In words: Inhibition of p38alpha MAPK in TNF-alpha-induced HUVEC assessed as downregulation of IL-6 mRNA expression at 10 uM incubated for 4 hrs by RT-PCR analysis. Type of assay: cell-based.
For assay [2], the target named is Tyrosine-protein kinase JAK1 (Homo sapiens, UniProt P23458). Description: Inhibition of JAK1 (unknown origin) by radiometric assay.
In assay [3] the target is Casein kinase I isoform delta (Homo sapiens, UniProt P48730). Description: Inhibition of CK1-delta (unknown origin) by radiometric assay.
The target in assay [4] is T1, Mitogen-activated protein kinase 14. In words: Inhibition of p38alpha MAPK (unknown origin) by radiometric assay.
Assay [5] addresses T2, Tyrosine-protein kinase JAK3 (Homo sapiens, UniProt P52333).
T2 sequence (P52333 whole entry): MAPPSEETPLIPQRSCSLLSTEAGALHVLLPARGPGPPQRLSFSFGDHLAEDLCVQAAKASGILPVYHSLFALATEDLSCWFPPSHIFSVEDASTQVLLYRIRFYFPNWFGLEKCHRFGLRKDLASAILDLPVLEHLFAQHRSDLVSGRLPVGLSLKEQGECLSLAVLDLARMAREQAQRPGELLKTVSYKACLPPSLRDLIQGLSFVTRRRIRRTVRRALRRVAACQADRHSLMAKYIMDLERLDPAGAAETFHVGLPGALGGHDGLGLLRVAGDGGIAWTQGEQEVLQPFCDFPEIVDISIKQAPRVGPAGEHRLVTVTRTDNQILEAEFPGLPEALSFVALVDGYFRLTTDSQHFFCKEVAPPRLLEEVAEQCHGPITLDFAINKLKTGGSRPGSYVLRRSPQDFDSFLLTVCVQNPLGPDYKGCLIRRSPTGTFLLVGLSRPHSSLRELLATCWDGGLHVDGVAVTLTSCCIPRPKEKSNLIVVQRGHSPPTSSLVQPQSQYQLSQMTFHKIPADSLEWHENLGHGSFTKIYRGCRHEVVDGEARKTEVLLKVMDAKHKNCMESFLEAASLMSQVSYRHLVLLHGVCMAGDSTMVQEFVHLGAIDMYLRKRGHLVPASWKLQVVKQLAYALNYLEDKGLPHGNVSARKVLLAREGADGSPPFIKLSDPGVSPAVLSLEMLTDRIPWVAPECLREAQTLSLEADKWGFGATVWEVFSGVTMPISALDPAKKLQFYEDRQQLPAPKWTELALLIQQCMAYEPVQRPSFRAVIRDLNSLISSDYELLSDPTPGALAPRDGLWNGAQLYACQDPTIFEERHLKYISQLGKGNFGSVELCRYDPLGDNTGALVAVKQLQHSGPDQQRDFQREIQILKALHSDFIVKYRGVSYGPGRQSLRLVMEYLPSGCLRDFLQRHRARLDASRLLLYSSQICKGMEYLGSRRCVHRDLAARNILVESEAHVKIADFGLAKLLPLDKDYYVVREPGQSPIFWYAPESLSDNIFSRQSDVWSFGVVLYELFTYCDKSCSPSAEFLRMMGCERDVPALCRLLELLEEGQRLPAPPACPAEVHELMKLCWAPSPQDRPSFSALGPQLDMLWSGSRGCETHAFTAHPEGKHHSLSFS
In words: Inhibition of JAK3 (unknown origin) by radiometric assay.

Assay [6] deals with T1, Mitogen-activated protein kinase 14. In words: Inhibition of p38alpha MAPK in TNF-alpha-induced HUVEC assessed as downregulation of VCAM-1 mRNA expression at 10 uM incubated for 4 hrs by RT-PCR analysis. Type of assay: cell-based.
For assay [7] the target is unchanged. Description: Inhibition of p38alpha MAPK in TNF-alpha-induced HUVEC assessed as downregulation of COX-2 mRNA expression at 10 uM incubated for 4 hrs by RT-PCR analysis. Type of assay: cell-based.
For assay [8], the target named is Tyrosine-protein kinase JAK2 (Homo sapiens, UniProt O60674). Description: Inhibition of JAK2 (unknown origin) by radiometric assay.
The species entered for assay [9] is Homo sapiens. Description: Selectivity ratio of IC50 for p38alpha MAPK (unknown origin) to IC50 for JAK2 (unknown origin).
For assay [10], the species on record is Homo sapiens. Description: Selectivity ratio of IC50 for p38alpha MAPK (unknown origin) to IC50 for CK1-delta (unknown origin).

Calls of active or inactive are those of the source. The calls are words filed in the database; no cut-off is given here.

T1 sequence (Q16539 whole entry): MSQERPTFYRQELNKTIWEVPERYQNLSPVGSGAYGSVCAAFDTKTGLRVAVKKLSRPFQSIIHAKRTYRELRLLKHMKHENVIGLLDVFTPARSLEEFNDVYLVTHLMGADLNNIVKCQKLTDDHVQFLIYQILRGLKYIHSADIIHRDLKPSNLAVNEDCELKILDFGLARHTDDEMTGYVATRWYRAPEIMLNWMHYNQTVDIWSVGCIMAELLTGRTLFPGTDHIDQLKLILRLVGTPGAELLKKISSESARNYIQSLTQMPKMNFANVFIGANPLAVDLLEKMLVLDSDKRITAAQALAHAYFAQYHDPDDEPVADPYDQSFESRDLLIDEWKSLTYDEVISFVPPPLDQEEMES
Tyrosine-protein kinase JAK1, sequence (P23458 whole entry, canonical isoform): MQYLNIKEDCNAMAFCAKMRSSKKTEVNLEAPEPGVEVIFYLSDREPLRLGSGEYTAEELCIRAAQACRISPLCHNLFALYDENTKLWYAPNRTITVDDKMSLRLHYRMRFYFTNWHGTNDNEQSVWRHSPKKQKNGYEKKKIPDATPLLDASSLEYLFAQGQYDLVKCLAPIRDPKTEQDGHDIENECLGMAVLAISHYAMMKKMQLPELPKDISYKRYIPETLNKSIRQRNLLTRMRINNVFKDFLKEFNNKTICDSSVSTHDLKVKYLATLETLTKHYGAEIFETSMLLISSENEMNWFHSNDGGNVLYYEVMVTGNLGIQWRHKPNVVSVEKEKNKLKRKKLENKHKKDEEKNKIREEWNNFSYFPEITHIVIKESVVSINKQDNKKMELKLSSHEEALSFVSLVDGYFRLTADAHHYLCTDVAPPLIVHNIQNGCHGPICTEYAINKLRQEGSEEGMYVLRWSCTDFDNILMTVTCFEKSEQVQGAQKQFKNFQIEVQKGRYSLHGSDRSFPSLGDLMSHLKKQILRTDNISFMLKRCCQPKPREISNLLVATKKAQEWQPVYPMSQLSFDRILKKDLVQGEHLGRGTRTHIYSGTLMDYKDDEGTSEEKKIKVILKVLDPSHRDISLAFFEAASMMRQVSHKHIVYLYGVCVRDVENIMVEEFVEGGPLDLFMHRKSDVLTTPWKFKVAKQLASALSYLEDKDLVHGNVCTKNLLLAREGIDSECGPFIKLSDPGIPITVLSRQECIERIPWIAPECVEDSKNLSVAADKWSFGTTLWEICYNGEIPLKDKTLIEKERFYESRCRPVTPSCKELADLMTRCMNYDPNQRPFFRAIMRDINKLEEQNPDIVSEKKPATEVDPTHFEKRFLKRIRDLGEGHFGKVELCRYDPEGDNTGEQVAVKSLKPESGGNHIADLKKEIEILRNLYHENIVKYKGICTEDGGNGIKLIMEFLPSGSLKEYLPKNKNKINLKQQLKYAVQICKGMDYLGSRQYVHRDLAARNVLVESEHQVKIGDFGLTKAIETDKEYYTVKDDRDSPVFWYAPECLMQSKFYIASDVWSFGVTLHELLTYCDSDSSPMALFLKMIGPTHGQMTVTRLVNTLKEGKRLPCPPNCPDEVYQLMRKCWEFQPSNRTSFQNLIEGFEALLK
Tyrosine-protein kinase JAK2, sequence (O60674 whole entry): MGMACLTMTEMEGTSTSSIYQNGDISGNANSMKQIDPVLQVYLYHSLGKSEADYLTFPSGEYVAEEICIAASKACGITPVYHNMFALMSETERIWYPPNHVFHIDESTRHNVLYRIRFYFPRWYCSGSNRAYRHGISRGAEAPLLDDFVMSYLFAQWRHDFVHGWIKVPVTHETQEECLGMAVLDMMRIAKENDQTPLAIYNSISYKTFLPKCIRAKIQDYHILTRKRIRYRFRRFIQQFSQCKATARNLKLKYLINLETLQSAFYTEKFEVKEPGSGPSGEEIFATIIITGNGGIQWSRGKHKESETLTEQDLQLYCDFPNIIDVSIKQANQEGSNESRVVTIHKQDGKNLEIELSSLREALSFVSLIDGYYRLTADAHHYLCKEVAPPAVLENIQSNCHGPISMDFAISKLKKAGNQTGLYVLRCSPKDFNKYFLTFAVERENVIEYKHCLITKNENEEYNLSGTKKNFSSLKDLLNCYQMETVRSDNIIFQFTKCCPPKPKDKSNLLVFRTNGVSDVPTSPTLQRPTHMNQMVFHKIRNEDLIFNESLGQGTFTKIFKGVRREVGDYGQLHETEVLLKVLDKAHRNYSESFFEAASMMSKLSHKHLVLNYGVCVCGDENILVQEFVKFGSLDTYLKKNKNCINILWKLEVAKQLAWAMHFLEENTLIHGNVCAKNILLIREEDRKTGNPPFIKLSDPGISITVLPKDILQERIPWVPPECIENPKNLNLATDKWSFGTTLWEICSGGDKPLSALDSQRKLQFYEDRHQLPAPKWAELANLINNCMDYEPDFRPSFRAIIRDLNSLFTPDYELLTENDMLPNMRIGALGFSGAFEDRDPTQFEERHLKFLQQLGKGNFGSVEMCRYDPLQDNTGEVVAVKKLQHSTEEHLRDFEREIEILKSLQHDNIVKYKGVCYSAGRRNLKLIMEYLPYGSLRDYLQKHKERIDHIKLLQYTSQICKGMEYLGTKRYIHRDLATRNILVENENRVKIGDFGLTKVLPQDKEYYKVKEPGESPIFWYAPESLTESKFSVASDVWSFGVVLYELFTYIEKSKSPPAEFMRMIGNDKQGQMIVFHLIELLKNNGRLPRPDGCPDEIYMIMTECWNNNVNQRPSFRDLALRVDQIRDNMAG
Casein kinase I isoform delta, sequence (P48730 whole entry, canonical isoform): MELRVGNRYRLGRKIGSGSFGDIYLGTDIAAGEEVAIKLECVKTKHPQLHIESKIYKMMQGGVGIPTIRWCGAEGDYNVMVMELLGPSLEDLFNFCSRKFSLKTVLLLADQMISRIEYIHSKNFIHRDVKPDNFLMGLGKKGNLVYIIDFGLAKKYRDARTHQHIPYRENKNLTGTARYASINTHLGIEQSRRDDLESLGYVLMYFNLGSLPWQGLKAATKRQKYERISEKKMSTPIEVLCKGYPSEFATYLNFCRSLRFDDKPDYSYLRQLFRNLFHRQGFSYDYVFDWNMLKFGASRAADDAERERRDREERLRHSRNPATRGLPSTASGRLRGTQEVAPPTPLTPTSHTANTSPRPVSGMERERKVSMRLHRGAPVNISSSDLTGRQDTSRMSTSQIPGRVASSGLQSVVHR

As usually defined, the IC50 is the concentration needed to halve the response being measured. Read a high IC50 as lower potency. For `O=C(O)c1ccc(-c2nc(-c3ccc(F)cc3)c(-c3cc[nH]c(=O)c3)[nH]2)cc1`, the inhibition entry in assay [1], in [6] and in assay [7] was “inactive” in each case. For the same molecule, the IC50 is 14.1 µM in [2]; 24.8 µM in [3]; 2.94 µM in assay [4]; 3.9 µM in assay [5]; 0.274 µM in [8]. The Ratio IC50 in the assay filed under Homo sapiens [9] and in the assay listed under Homo sapiens [10] was 10 in each case.
